Non-standard residues stand in square brackets, D forms with d. Residues, ends and D or L forms follow the SMILES beside them. *: point of attachment. 2Nal = N[C@@H](Cc1ccc2ccccc2c1)C(=O)O; d2Nal = N[C@H](Cc1ccc2ccccc2c1)C(=O)O; Butanoyl(4-Ph) = O=C(CCCc1ccccc1)*; Dab = NCC[C@H](N)C(=O)O
Tests used:
Assay in all cases: Minimum inhibitory concentration (MIC), liquid media method in 96-well plates
S. aureus (ATCC 6538) = assay type: cell-based, Staphylococcus aureus; details: about 7×10^5 cfu/ml per well; incubated 48 hours at 32,5° C.; turbidity read-out
Protocol: (§1) The peptides are dissolved in culture medium at 400 ppm. A control in the microbiological medium alone and a control consisting of Phenonip® prepared to 5% (v/v) directly in the microbiological medium was used. The determination of minimal inhibitory concentration of each product is performed according to a liquid media method adapted in 96-wells plates. To determine the minimum inhibitory concentration (MIC), the peptides are tested in serial dilutions (½ to ½ for 8 dilutions) directly in the liquid culture medium to favor the growth of bacteria in microplate 96 wells. Then, each point of dilution is contaminated with each strain at about 7×10^5 cfu/ml for S. aureus (ATCC 6538), 5.5×10^5 cfu/ml for P. acnes (ATCC 11827) and 1,2×10^5 cfu/ml for B. subtilis (ATCC 6633) per well. Finally, plates are incubated 48 hours at 32, 5° C.±2.5° C., taking care to respect the respiratory type of each strain. […] The last dilution corresponding to the absence of bacterial growth is taken as minimum inhibitory concentration (MIC) for the microbial strain considered.

B. subtilis (ATCC 6633) = assay type: cell-based, Bacillus subtilis; details: 1,2×10^5 cfu/ml per well; incubated 48 hours at 32,5° C.; turbidity read-out
Protocol: as §1

P. acnes (ATCC 11827) = assay type: cell-based, Propionibacterium acnes; details: 5.5×10^5 cfu/ml per well; incubated 48 hours at 32,5° C.; turbidity read-out
Protocol: as §1

MIC values S. aureus (S. aureus (ATCC 6538)) [ppm] | MIC values B. subtilis (B. subtilis (ATCC 6633)) [ppm] | MIC values P. acnes (P. acnes (ATCC 11827)) [ppm] | Compound
125 | 62.5 | 500 | N=C(N)NCCC[C@H](NC(=O)[C@@H](Cc1ccccc1)NC(=O)[C@H](Cc1c[nH]cn1)NC(=O)CCCc1ccccc1)C(=O)N[C@@H](Cc1ccc2ccccc2c1)C(N)=O [I-a, PhBu-His-D-Phe-Arg-L-2NaphAla-NH2 *2TFA] ({Butanoyl(4-Ph)}-H[dF]R[2Nal]-NH2)
 | 100 | 400 | N=C(N)NCCC[C@H](NC(=O)[C@@H](Cc1ccccc1)NC(=O)[C@H](Cc1c[nH]cn1)NC(=O)CCCc1ccccc1)C(=O)N[C@H](Cc1ccc2ccccc2c1)C(N)=O [I-b, PhBu-His-D-Phe-Arg-D-2NaphAla-NH2 *2TFA] ({Butanoyl(4-Ph)}-H[dF]R[d2Nal]-NH2)
 | 200 |  | COc1ccc(CCCC(=O)N[C@@H](Cc2c[nH]cn2)C(=O)N[C@H](Cc2ccccc2)C(=O)N[C@@H](CCCNC(=N)N)C(=O)N[C@@H](Cc2c[nH]c3ccccc23)C(N)=O)cc1 [I-c, 4-MeO—PhBu-His-D-Phe-Arg-Trp-NH2 × 2 AcOH]
31.3 | 15.6 | 125 | CCCN(CCC)C(=O)[C@H](Cc1c[nH]c2ccccc12)NC(=O)[C@H](CCCNC(=N)N)NC(=O)[C@@H](Cc1ccccc1)NC(=O)[C@H](Cc1c[nH]cn1)NC(=O)CCCc1ccccc1 [I-d, PhBu-His-D-Phe-Arg-Trp-N(Propyl)2 *2TFA]
 | 400 |  | NCC[C@H](NC(=O)[C@@H](Cc1ccccc1)NC(=O)[C@H](Cc1c[nH]cn1)NC(=O)CCCc1ccccc1)C(=O)N[C@@H](Cc1c[nH]c2ccccc12)C(N)=O [I-e, PhBu-His-D-Phe-Dab-Trp-NH2 *2TFA] ({Butanoyl(4-Ph)}-H[dF][Dab]W-NH2)
400 | 252 |  | N=C(N)NCCC[C@H](NC(=O)[C@@H](Cc1ccccc1)NC(=O)[C@H](Cc1c[nH]cn1)NC(=O)CCCc1ccccc1)C(=O)N[C@@H](Cc1c[nH]c2ccccc12)C(=O)NCc1ccccc1 [I-f, PhBu-His-D-Phe-Arg-Trp-NH-Bn *2TFA]
200 | 252 |  | CCCCCCCCNC(=O)[C@H](Cc1c[nH]c2ccccc12)NC(=O)[C@H](CCCNC(=N)N)NC(=O)[C@@H](Cc1ccccc1)NC(=O)[C@H](Cc1c[nH]cn1)NC(=O)CCCc1ccccc1 [I-g, PhBu-His-D-Phe-Arg-Trp-NH-Octyl *2TFA]
 | 317 |  | N=C(N)NCCC[C@H](NC(=O)[C@@H](Cc1ccccc1)NC(=O)[C@H](Cc1c[nH]cn1)NC(=O)CCCc1ccccc1)C(=O)N[C@@H](Cc1c[nH]c2ccccc12)C(=O)NCC(O)CO (stereo partly drawn) [I-h, PhBu-His-D-Phe-Arg-Trp-NH—CH2—CH(OH)—CH2OH *2TFA]
